Results from patent US8969343B2, “Histone demethylase inhibitors” (priority 2012, dated 2015).
Structures can show the parent of a compound that is named as a salt. Where two headings read alike, the source gives them in different places.

Experiments:
Jarid1A = molecular target: T1, Jarid1A (Homo sapiens, UniProt P29375); experiment: Jarid1A in vitro enzyme inhibition assay (TR-FRET); assay type: biochemical
T1 construct: purchased BPS Bioscience 50110
T1 sequence (P29375 1-1090): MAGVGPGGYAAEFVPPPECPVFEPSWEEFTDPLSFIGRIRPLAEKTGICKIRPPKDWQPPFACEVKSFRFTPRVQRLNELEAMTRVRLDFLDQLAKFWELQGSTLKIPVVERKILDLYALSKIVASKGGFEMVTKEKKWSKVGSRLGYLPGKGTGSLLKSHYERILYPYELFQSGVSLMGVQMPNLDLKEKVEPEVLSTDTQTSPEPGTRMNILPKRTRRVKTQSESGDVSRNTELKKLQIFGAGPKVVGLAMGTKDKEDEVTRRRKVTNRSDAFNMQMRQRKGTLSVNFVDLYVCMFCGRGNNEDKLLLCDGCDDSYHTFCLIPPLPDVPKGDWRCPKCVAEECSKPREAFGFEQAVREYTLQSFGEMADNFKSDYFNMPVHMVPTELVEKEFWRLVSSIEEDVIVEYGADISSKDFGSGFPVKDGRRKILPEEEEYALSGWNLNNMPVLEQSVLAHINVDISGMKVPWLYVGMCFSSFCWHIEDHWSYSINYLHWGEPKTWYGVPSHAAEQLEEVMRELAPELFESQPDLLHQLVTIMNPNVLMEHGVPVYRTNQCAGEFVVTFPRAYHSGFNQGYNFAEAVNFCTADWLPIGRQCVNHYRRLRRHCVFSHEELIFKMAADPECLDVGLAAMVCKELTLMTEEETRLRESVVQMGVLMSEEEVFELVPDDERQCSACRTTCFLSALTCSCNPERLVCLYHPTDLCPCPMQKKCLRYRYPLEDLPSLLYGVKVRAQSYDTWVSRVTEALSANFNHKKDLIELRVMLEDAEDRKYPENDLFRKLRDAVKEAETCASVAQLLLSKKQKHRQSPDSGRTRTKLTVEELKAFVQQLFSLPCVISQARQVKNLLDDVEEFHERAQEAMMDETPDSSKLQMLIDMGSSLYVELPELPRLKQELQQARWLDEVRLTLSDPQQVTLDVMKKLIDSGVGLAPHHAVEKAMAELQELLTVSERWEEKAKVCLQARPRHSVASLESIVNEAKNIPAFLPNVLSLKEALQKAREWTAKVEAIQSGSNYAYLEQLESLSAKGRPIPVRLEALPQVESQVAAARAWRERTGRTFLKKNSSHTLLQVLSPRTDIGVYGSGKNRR
Description: (§1) This assay determines the ability of a test compound to inhibit Jarid1A, Jarid1B, and JMJD2C demethylase activity.
The enzymatic assay of Jarid1A activity is based upon Time Resolved-Fluorescence Resonance Energy Transfer (TR-FRET) detection. […] The assay reaction was initiated by the following: 2 μl of the mixture of 900 nM H3K4me3-biotin labeled peptide and 6 μM alpha-ketoglutaric acid with 2 μl of 11-point serial diluted inhibitor in 3% DMSO was added to each well of plate, followed by the addition of 2 μl of 3 nM Jarid1A to initiate the reaction. The reaction mixture was incubated at room temperature for 30 minutes, and terminated by the addition of 6 μl of 5 mM EDTA in LANCE detection buffer containing 50 nM Phycolink Streptavidin-allophycocyanin and 2 nM Europium-anti-H3K4me1-2 antibody.

Jarid1B = molecular target: T2, Jarid1B (Homo sapiens, UniProt Q9UGL1); experiment: Jarid1B in vitro enzyme inhibition assay (TR-FRET); assay type: biochemical; details: 0.8 nM Jarid1B, 300 nM H3K4me3-biotin peptide, 2 μM alpha-ketoglutaric acid
T2 sequence (Q9UGL1 2-751): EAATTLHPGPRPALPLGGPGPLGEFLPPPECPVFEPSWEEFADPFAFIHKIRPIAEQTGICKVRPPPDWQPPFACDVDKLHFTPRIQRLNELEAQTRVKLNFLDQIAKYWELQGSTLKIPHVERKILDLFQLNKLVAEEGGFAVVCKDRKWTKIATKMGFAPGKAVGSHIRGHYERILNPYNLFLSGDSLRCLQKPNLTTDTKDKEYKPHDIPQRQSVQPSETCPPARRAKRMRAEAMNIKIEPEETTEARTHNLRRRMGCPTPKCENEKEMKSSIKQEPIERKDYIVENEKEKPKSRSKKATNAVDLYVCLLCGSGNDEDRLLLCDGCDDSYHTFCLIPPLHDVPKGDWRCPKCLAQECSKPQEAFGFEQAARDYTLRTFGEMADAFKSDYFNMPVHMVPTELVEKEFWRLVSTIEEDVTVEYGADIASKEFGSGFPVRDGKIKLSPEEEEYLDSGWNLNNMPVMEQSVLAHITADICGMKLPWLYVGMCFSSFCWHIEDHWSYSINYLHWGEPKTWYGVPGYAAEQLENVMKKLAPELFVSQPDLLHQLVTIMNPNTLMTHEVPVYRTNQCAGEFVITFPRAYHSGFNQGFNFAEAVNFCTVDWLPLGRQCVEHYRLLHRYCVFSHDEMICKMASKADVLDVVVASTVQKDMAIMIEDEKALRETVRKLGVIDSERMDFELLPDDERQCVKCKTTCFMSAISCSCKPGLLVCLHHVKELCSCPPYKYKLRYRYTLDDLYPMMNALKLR
Description: as §1
The reaction mixture was incubated at room temperature for 30 minutes, and terminated by the addition of 6 μl of 5 mM EDTA in LANCE detection buffer containing 50 nM Phycolink Streptavidin-allophycocyanin and 2 nM Europium-anti-H3K4me1-2 antibody.

JMJD2C = molecular target: T3, JMJD2C (Homo sapiens, UniProt Q9H3R0); experiment: JMJD2C in vitro enzyme inhibition assay (TR-FRET); assay type: biochemical; details: 0.3 nM JMJD2C, 300 nM H3K9me3-biotin peptide, 2 μM alpha-ketoglutaric acid
T3 sequence (Q9H3R0 2-372): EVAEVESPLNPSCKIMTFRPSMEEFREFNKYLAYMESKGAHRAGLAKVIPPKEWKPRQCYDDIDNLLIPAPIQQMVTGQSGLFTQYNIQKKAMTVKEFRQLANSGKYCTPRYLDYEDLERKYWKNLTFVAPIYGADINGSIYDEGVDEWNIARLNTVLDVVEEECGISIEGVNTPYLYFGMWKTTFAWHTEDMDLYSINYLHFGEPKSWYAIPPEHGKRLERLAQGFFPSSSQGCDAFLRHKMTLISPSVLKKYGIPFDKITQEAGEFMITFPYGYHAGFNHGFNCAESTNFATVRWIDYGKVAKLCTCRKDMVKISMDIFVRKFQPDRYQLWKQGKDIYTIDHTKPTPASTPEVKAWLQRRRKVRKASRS
Description: as §1
Reaction product was determined quantitatively by TR-FRET after the addition of detection reagent Phycolink Streptavidin-allophycocyanin (Prozyme) and Europium-anti-di-methylated histone H3 lysine 9 (H3K9me2) antibody (PerkinElmer) in the presence of 5 mM EDTA in LANCE detection buffer (PerkinElmer) at a final concentration of 50 nM and 1 nM, respectively.
The assay reaction was initiated by the following: 2 μl of the mixture of 900 nM H3K9me3-biotin labeled peptide and 6 μM alpha-ketoglutaric acid with 2 μl of 11-point serial diluted inhibitor in 3% DMSO were added to each well of the plate, followed by the addition of 2 μl of 0.9 nM JMJD2C to initiate the reaction. The reaction mixture was incubated at room temperature for 30 minutes, and terminated by the addition of 6 μl of 5 mM EDTA in LANCE detection buffer containing 100 nM Phycolink Streptavidin-allophycocyanin and 2 nM Europium-anti-H3K9me2 antibody.

KDM5A/B = experiment: In vitro cell-based assay: tri-methyl H3K4 immuno-blotting in ZR-75-1 breast cancer cells; details: 72 hours, tri-methyl H3K4, relative IC50, read-out: Cellular IC50
Description: This quantitative immuno-blotting assay measures the amount tri-methylated histone H3 at amino acid Lysine number 4, a specific substrate […] of the direct enzymatic activity of the histone demethylases KDM5A and KDM5B from extracts of the ZR-75-1 breast cancer cell line.
This assay is a fluorometric immunoassay for the quantification of tri-methyl H3K4 extracted from cells treated with test compound and is used as a measure of the cellular inhibition of KDM5A/B.
Extracts were prepared containing all of the cellular histone material using detergent based lysis and sonication methods. These lysates were subsequently normalized for total protein content using a colorimetric bicinchonic acid assay (MicroBCA Pierce/Thermo Scientific). Normalized cell extracts were then subjected to typical immuno-blotting procedures using NuPage reagents (Life Technologies). […] The amount of tri-methylated lysine 4 of histone H3 was detected using an antibody specific to the tri-methylated state (Cell Signaling Technologies) and quantified on an infrared imager using a densitometry software package (Odyssey CLx, Image Studio, Li-Cor). This background subtracted densitometry value was reported as a ration of the GAPDH amount for that sample and then calculated as a percent of the DMSO treated sample. […]

[1] = 1 nM Jarid1A, 300 nM H3K4me3-biotin peptide, 2 μM alpha-ketoglutaric acid

Compound | IC50 (Jarid1A; [1]) [nM] | IC50 (Jarid1B) [nM] | IC50 (JMJD2C) [nM] | IC50 (Jarid1A) [nM] | IC50 (KDM5A/B) [nM]
Cn1nc2ccccc2c1Nc1cnccc1C(=O)O [Example 2, 3-[(2-methyl-2H-indazol-3-yl)amino]pyridine-4-carboxylic acid] | 1000 to 10000 | 1000 to 10000 | 100 to 1000 | – | –
CN(C)CCCCCn1nc(Nc2cnccc2C(=O)O)c2cc(F)ccc21 [Example 22] | – | < 100 | 100 to 1000 | < 100 | –
O=C(O)c1ccncc1Nc1nn(Cc2ccccc2)c2ccc(F)cc12 [Example 24, 3-[(1-benzyl-5-fluoro-1H-indazol-3-yl)amino]pyridine-4-carboxylic acid] | < 100 | < 100 | 100 to 1000 | – | > 10000
CNCCCCCn1nc(Nc2cnccc2C(=O)O)c2cc(F)ccc21 [Example 46, 3-({5-fluoro-1-[5-(methylamino)pentyl]-1H-indazol-3-yl}amino)pyridine-4-carboxylic acid, trifluoroacetic acid salt] | < 100 | < 100 | < 100 | – | –
CN(C)CC#CCn1nc(Nc2cnccc2C(=O)O)c2cc(F)ccc21 [Example 49, 3-({1-[4-(dimethylamino)but-2-yn-1-yl]-5-fluoro-1H-indazol-3-yl}amino)pyridine-4-carboxylic acid, trifluoroacetic acid salt] | < 100 | < 100 | < 100 | – | –
O=C(O)c1ccncc1Nc1nn(C2CCC(F)(F)CC2)c2ccc(F)cc12 [Example 64, 3-{[1-(4,4-difluorocyclohexyl)-5-fluoro-1H-indazol-3-yl]amino}pyridine-4-carboxylic acid] | 1000 to 10000 | 1000 to 10000 | 1000 to 10000 | – | –
